Measurements published in the supplement of paper PMC10307832.

Experiments:
Experiment in all cases: relative viability (nuclei count vs DMSO), 5 days (fraction); higher = more cells survive
NCI-H322M = tested on: NCI-H322M
Procedure, shortened: (§1)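 Medians of duplicate plates are given as relative viability. That measure is the nuclei count in treated wells divided by the count in vehicle wells. Counts were taken on 4× images of lung cancer cell lines in 1536-well plates, 5 days after pin-tool dosing the day after seeding with one drug alone or a fixed anchor-drug dose plus five library-drug doses (not always all listed) in √10 steps.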

CAL-12T = tested on: CAL-12T
Procedure, shortened: as §1

NCI-H1734 = tested on: NCI-H1734
Procedure, shortened: as §1

COR-L23 = tested on: COR-L23
Procedure, shortened: as §1

NCI-H1437 = tested on: NCI-H1437
Procedure, shortened: as §1

NCI-H2228 = tested on: NCI-H2228
Procedure, shortened: as §1

ABC-1 = tested on: ABC-1
Procedure, shortened: as §1

EKVX = tested on: EKVX
Procedure, shortened: as §1

NCI-H1355 = tested on: NCI-H1355
Procedure, shortened: as §1

PC-3 [JPC-3] = tested on: PC-3 [JPC-3]
Procedure, shortened: as §1

H3255 = tested on: H3255
Procedure, shortened: as §1

CC1(C)CCC(c2ccc(Cl)cc2)=C(CN2CCN(c3ccc(C(=O)NS(=O)(=O)c4ccc(N[C@H](CCN5CCOCC5)CSc5ccccc5)c(S(=O)(=O)C(F)(F)F)c4)cc3)CC2)C1 [Navitoclax] + CS(=O)(=O)N1CCN(Cc2cc3nc(-c4cccc5[nH]ncc45)nc(N4CCOCC4)c3s2)CC1 [Pictilisib] (partner 1 µM)
relative viability (NCI-H322M; first compound 0.005 µM): 0.485
relative viability (NCI-H322M; first compound 0.01581 µM): 0.526
relative viability (NCI-H322M; first compound 0.05 µM): 0.565
relative viability (NCI-H322M; first compound 0.1581 µM): 0.516
relative viability (NCI-H322M; first compound 0.5 µM): 0.562
relative viability (CAL-12T; first compound 0.005 µM): 0.549
relative viability (CAL-12T; first compound 0.01581 µM): 0.419
relative viability (CAL-12T; first compound 0.05 µM): 0.404
relative viability (CAL-12T; first compound 0.1581 µM): 0.522
relative viability (CAL-12T; first compound 0.5 µM): 0.393
relative viability (NCI-H1734; first compound 0.005 µM): 0.455
relative viability (NCI-H1734; first compound 0.01581 µM): 0.481
relative viability (NCI-H1734; first compound 0.1581 µM): 0.49
relative viability (NCI-H1734; first compound 0.5 µM): 0.465
relative viability (COR-L23; first compound 0.005 µM): 0.733
relative viability (COR-L23; first compound 0.01581 µM): 0.919
relative viability (COR-L23; first compound 0.05 µM): 0.818
relative viability (COR-L23; first compound 0.1581 µM): 0.763
relative viability (COR-L23; first compound 0.5 µM): 0.932
relative viability (NCI-H1437; first compound 0.005 µM): 0.409
relative viability (NCI-H1437; first compound 0.01581 µM): 0.537
relative viability (NCI-H1437; first compound 0.05 µM): 0.501
relative viability (NCI-H1437; first compound 0.1581 µM): 0.445
relative viability (NCI-H1437; first compound 0.5 µM): 0.477
relative viability (NCI-H2228; first compound 0.005 µM): 0.431
relative viability (NCI-H2228; first compound 0.01581 µM): 0.526
relative viability (NCI-H2228; first compound 0.05 µM): 0.367
relative viability (NCI-H2228; first compound 0.1581 µM): 0.366
relative viability (NCI-H2228; first compound 0.5 µM): 0.304
relative viability (ABC-1; first compound 0.005 µM): 0.795
relative viability (ABC-1; first compound 0.01581 µM): 1
relative viability (ABC-1; first compound 0.05 µM): 0.686
relative viability (ABC-1; first compound 0.1581 µM): 0.64
relative viability (ABC-1; first compound 0.5 µM): 0.616
relative viability (EKVX; first compound 0.005 µM): 0.487
relative viability (EKVX; first compound 0.01581 µM): 0.611
relative viability (EKVX; first compound 0.05 µM): 0.427
relative viability (EKVX; first compound 0.1581 µM): 0.41
relative viability (EKVX; first compound 0.5 µM): 0.452
relative viability (NCI-H1355; first compound 0.005 µM): 0.461
relative viability (NCI-H1355; first compound 0.01581 µM): 0.42
relative viability (NCI-H1355; first compound 0.05 µM): 0.416
relative viability (NCI-H1355; first compound 0.1581 µM): 0.497
relative viability (NCI-H1355; first compound 0.5 µM): 0.427
relative viability (PC-3 [JPC-3]; first compound 0.005 µM): 0.648
relative viability (PC-3 [JPC-3]; first compound 0.01581 µM): 0.701
relative viability (PC-3 [JPC-3]; first compound 0.05 µM): 0.87
relative viability (PC-3 [JPC-3]; first compound 0.1581 µM): 0.678
relative viability (PC-3 [JPC-3]; first compound 0.5 µM): 0.75
relative viability (H3255; first compound 0.005 µM): 0.524
relative viability (H3255; first compound 0.01581 µM): 0.528
relative viability (H3255; first compound 0.05 µM): 0.549
relative viability (H3255; first compound 0.1581 µM): 0.45
relative viability (H3255; first compound 0.5 µM): 0.461
